Measurements as given in US6239129A, “Cyano-indole serotonin-reuptake inhibitor compounds” (Adir et Compagnie, priority 1999, dated 2001).
Counter-ions that a name gives are not always drawn.

Biological target: T1, Serotonin-reuptake Sites (Rattus norvegicus, UniProt P31652)
T1 construct: The membranes are prepared from rat frontal cortex; from tissue; host or cells: rat frontal cortex membranes
Assay: Determination of Affinity for Serotonin-reuptake Sites in the Rat ([^3 H]-paroxetine competition)
Format: binding
Settings: read-out: dissociation constant Ki
Protocol: Determination of Affinity for Serotonin-reuptake Sites in the Rat
The incubation buffer contains 50 mM TRIS-HCl (pH 7.4), 120 mM NaCl and 5 mM KCl. Non-specific binding is determined using 10 μM citalopram. At the end of the incubation, the mixture is filtered through filters and washed three times with 5 ml of cooled buffer. The radioactivity retained on the filters is determined by liquid scintillation counting. The binding isotherms are analysed by non-linear regression to determine the IC50 values. The latter are converted into a dissociation constant (Ki) using the Cheng-Prusoff equation: […]

T1 sequence (P31652 whole entry): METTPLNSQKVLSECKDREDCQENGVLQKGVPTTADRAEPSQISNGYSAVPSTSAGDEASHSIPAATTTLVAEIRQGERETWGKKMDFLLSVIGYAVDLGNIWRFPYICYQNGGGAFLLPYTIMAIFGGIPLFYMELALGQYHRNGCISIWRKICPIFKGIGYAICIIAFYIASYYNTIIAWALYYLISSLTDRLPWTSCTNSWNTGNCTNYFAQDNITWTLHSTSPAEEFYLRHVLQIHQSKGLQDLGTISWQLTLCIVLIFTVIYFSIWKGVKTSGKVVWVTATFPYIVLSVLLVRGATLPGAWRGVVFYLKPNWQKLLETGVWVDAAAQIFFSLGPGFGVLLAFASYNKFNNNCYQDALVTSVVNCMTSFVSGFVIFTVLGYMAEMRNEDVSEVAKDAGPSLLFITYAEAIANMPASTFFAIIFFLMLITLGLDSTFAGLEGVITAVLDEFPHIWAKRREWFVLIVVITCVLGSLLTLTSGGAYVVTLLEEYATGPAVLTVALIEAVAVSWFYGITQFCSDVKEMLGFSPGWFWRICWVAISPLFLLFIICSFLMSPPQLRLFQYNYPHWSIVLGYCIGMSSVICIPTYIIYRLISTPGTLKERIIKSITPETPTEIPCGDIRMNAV

Structure (SMILES): COc1cncnc1N1CCN(CCCn2ccc3ccc(C#N)cc32)CC1 [Example 1, 1-{3-[4-(5-Methoxy-4-pyrimidinyl)-1-piperazinyl]propyl}-1H-indole-6-carbonitrile dihydrochloride]
- Ki: 9.8 nM
